The structures appear in SMILES notation. Counter-ions that a name gives are not always drawn.

In one experiment the target is BRD4(BD1) (Homo sapiens (Human), UniProt O60885). Description: In vitro enzyme inhibition assay (BRD4 AlphaScreen). Format: binding. To be noted: class symbols A/B/C. How it is done: His-tagged BRD4 was cloned, expressed and purified to homogeneity. […] BRD4 binding and inhibition was assessed by monitoring the interaction of biotinylated H4-tetraacetyl peptide (AnaSpec, H4K5/8/12/16(Ac), biotin-labeled) with the target using the AlphaScreen technology (Life Technologies). […] After 20 min incubation at room temp, Alpha streptavidin donor beads and Nickel Chelate acceptor beads were added to a final concentration of 5 μg/mL.
The ability of the compounds disclosed herein to inhibit BRD4 activity was quantified and the respective IC50 value was determined.
Background: In Alpha technology, singlet oxygen from a donor bead excites a nearby acceptor bead.
As for `COc1cccc(-c2cn(C)c(=O)c3ccccc23)c1` [Example 1, 4-(3-methoxyphenyl)-2-methylisoquinolin-1-one], the IC50 lay in the range of 500 to 5000 nM. Same read-out and setting: the result for `CCS(=O)(=O)Nc1cccc(-c2cn(C)c(=O)c3ccc(-c4ccccc4)cc23)c1` [Example 73, N-[3-(2-methyl-1-oxo-6-phenylisoquinolin-4-yl)phenyl]ethanesulfonamide] reads 500 to 5000 nM; that for `Cn1cc(-c2cc(N)cc(F)c2)c2ccccc2c1=O` [Example 25, 4-(3-amino-5-fluorophenyl)-2-methylisoquinolin-1-one hydrochloride], 500 to 5000 nM; that for `Cn1cc(-c2cccc(NS(C)(=O)=O)c2)c2cnccc2c1=O` [Example 125, N-[3-(2-methyl-1-oxo-2,6-naphthyridin-4-yl)phenyl] methanesulfonamide], 500 to 5000 nM. Same read-out and setting: the result for `COc1ccc(-c2cn(C)c(=O)c(N)n2)cc1NS(C)(=O)=O` [Example 106, N-[5-(6-amino-4-methyl-5-oxopyrazin-2-yl)-2-methoxyphenyl]methanesulfonamide] reads over 5000 nM. On to `COc1ccc(-c2cn(C)c(=O)c3ccccc23)cc1S(N)(=O)=O` [Example 16, 2-methoxy-5-(2-methyl-1-oxoisoquinolin-4-yl) benzenesulfonamide], for which the 50% inhibitory concentration (IC50) lay in the range of 500 to 5000 nM. On to `Cn1cc(-c2ccc3c(c2)NCCO3)c2ccccc2c1=O` [Example 19, 4-(3,4-dihydro-2H-1,4-benzoxazin-6-yl)-2-methylisoquinolin-1-one], for which the IC50 lay within 500 to 5000 nM. Still for that read-out and setting: the result for `COc1ccccc1-c1cn(C)c(=O)c2ccccc12` [Example 4, 4-(2-methoxyphenyl)-2-methylisoquinolin-1-one] reads over 5000 nM.

The experiment is the same for the next values; noted with them: in vitro enzyme inhibition assay.
`CCS(=O)(=O)Nc1cc(OCc2ccccc2)cc(-c2cc(C)c(=O)n(C)c2)c1` [Example 395, N-[3-(1,5-dimethyl-6-oxopyridin-3-yl)-5-phenylmethoxyphenyl]ethanesulfonamide] yielded a concentration for half-maximal inhibition (IC50) of under 500 nM. Turning to `COc1ccc(COc2cc(-c3cc(C)c(=O)n(C)c3)cc(S(C)(=O)=O)c2)cc1` [Example 323, 5-[3-[(4-methoxyphenyl)methoxy]-5-methylsulfonylphenyl]-1,3-dimethylpyridin-2-one], the half-maximal inhibitory concentration (IC50) was under 500 nM.

On to `[2H]C([2H])([2H])n1cc(-c2cc(S(=O)(=O)CC)ccc2OCC)c(C)cc1=O` [Example 456, 5-(2-ethoxy-5-ethylsulfonylphenyl)-1-(^2H3)methyl-4-methylpyridin-2-one], for which the IC50 is under 500 nM. `CCCCn1cc(-c2nc(NS(C)(=O)=O)ncc2Oc2ccc(F)cc2F)cc(C)c1=O` [Example 296, N-[4-(1-butyl-5-methyl-6-oxopyridin-3-yl)-5-(2,4-difluorophenoxy)pyrimidin-2-yl]methanesulfonamide]: the half-inhibitory concentration (IC50) was under 500 nM.

For `Cc1cc(-c2cc(S(C)(=O)=O)ccc2NC2CCC(F)(F)CC2)cn(C)c1=O` [Example 413, 5-[2-[(4,4-difluorocyclohexyl)amino]-5-methylsulfonylphenyl]-1,3-dimethylpyridin-2-one], the IC50 is under 500 nM. Compound `CCS(=O)(=O)Nc1nc(Oc2ccc(F)cc2F)cc(-c2cc(C)c(=O)n(C)c2)n1` [Example 346, N-[4-(2,4-difluorophenoxy)-6-(1,5-dimethyl-6-oxopyridin-3-yl)pyrimidin-2-yl]ethanesulfonamide] showed an IC50 of 500 to 5000 nM.

`Cn1cc(-c2cc(NS(C)(=O)=O)ccc2Oc2ccc(F)cc2F)cc(N2CCCC2)c1=O` [Example 281, N-[4-(2,4-difluorophenoxy)-3-(1-methyl-6-oxo-5-pyrrolidin-1-ylpyridin-3-yl)phenyl]methanesulfonamide]: the IC50 lay in the range of 500 to 5000 nM.

The compound `Cn1cc(-c2cc(S(C)(=O)=O)ccc2OCC2CC2)c2ocnc2c1=O` [Example 237, 7-[2-(cyclopropylmethoxy)-5-methylsulfonylphenyl]-5-methyl-[1,3]oxazolo[4,5-c]pyridin-4-one] showed a half-maximal inhibitory concentration (IC50) of under 500 nM. Still for that read-out and setting: the result for `CCCc1cnc(NS(=O)(=O)CC)nc1-c1cc(Cl)c(=O)n(C)c1` [Example 359, N-[4-(5-chloro-1-methyl-6-oxopyridin-3-yl)-5-propylpyrimidin-2-yl]ethanesulfonamide] reads under 500 nM; that for `Cn1cc(-c2cc(OCC3CC3)cc(S(C)(=O)=O)c2)c2ccoc2c1=O` [Example 350, 4-[3-(cyclopropylmethoxy)-5-methylsulfonylphenyl]-6-methylfuro[2,3-c]pyridine-7-one], under 500 nM.

In turn, `Cn1cc(-c2cccc(NS(C)(=O)=O)c2)cc(OCc2ccccc2)c1=O` [Example 471, N-[3-(1-methyl-6-oxo-5-phenylmethoxypyridin-3-yl)phenyl]methanesulfonamide] gave a half-maximal inhibitory concentration (IC50) of over 5000 nM.

Compound `Cc1cc(-c2cc(S(C)(=O)=O)ccc2O[C@H]2CC[C@@H](N)CC2)cn(C)c1=O` [Example 403, 5-[2-(cis-4-aminocyclohexyl)oxy-5-methylsulfonylphenyl]-1,3-dimethylpyridin-2-one] registered a concentration for half-maximal inhibition (IC50) of under 500 nM. The same measure, in the same setting: in the case of `CCC(=O)Nc1cc(-c2cccc(NS(C)(=O)=O)c2)cn(C)c1=O` [Example 481, N-[5-[3-(methanesulfonamido)phenyl]-1-methyl-2-oxopyridin-3-yl]propanamide] it was over 5000 nM; in that of `COCC1COc2c(cc(S(C)(=O)=O)cc2-c2cc(C)c(=O)n(C)c2)O1` (centres unmarked) [Example 502, 5-[2-(methoxymethyl)-7-methylsulfonyl-2,3-dihydro-1,4-benzodioxin-5-yl]-1,3-dimethylpyridin-2-one], under 500 nM; in that of `CC(C)S(=O)(=O)c1ccc(OCC2CC2)c(-c2cn(C)c(=O)c3ccccc23)c1` [Example 364, 4-[2-(cyclopropylmethoxy)-5-propan-2-ylsulfonylphenyl]-2-methylisoquinolin-1-one], under 500 nM. On the same count and under the same terms, in the case of `Cc1cc(-c2nc(S(C)(=O)=O)ncc2Oc2ccc(F)cc2F)cn(C(C)C)c1=O` [Example 510, 5-[5-(2,4-difluorophenoxy)-2-methylsulfonylpyrimidin-4-yl]-3-methyl-1-propan-2-ylpyridin-2-one] it was 500 to 5000 nM; in that of `CCS(=O)(=O)c1ccc(OCC2CC2)c(-c2cn(C)c(=O)c3cncnc23)c1` [Example 232, 8-[2-(cyclopropylmethoxy)-5-ethylsulfonylphenyl]-6-methylpyrido[4,3-d]pyrimidin-5-one], under 500 nM. On to `CCS(=O)(=O)c1ccc(OCC2CC2)c(-c2cc(N3CCCC3)c(=O)n(C)c2)c1` [Example 282, 5-[2-(cyclopropylmethoxy)-5-ethylsulfonylphenyl]-1-methyl-3-pyrrolidin-1-ylpyridin-2-one], for which the IC50 was 500 to 5000 nM. Compound `[2H]C([2H])([2H])n1cc(-c2cc(NS(=O)(=O)CC)ccc2Oc2ccc(F)cc2F)ccc1=O` [Example 141, N-{4-(2,4-difluorophenoxy)-3-[1-(^2H3)methyl-6-oxopyridin-3-yl]phenyl}ethanesulfonamide] displayed an IC50 of under 500 nM. Same read-out and setting: the result for `CCS(=O)(=O)Nc1cccc(-c2cc(C)c(=O)n(C)n2)c1` [Example 480, N-[3-(1,5-dimethyl-6-oxopyridazin-3-yl)phenyl]ethanesulfonamide] reads 500 to 5000 nM; that for `CCCc1cnc(NS(=O)(=O)CC)nc1-c1cc(OC)c(=O)n(C)c1` [Example 361, N-[4-(5-methoxy-1-methyl-6-oxopyridin-3-yl)-5-propylpyrimidin-2-yl]ethanesulfonamide], under 500 nM; that for `CCC1CCc2cc(NS(C)(=O)=O)cc(-c3cn(C)c(=O)c4ccccc34)c2O1` (centres unmarked) [Example 490, N-[2-ethyl-8-(2-methyl-1-oxoisoquinolin-4-yl)-3,4-dihydro-2H-chromen-6-yl] methanesulfonamide], under 500 nM. For the compound `Cc1cc(-c2cc(S(=O)(=O)C(C)C)ccc2OCC2CC2)cn(C)c1=O` [Example 394, 5-[2-(cyclopropylmethoxy)-5-propan-2-ylsulfonylphenyl]-1,3-dimethylpyridin-2-one], the 50% inhibitory concentration (IC50) was under 500 nM. `CC#CCOc1cc(-c2cc(C)c(=O)n(C)c2)cc(S(C)(=O)=O)c1` [Example 340, 5-(3-but-2-ynoxy-5-methylsulfonylphenyl)-1,3-dimethylpyridin-2-one] displayed an IC50 of under 500 nM.

On to `Cc1cc(-c2nc(NS(C)(=O)=O)ncc2Oc2ccc(F)cc2F)cn(CC2CCC2)c1=O` [Example 298, N-[4-[1-(cyclobutylmethyl)-5-methyl-6-oxopyridin-3-yl]-5-(2,4-difluorophenoxy)pyrimidin-2-yl]methanesulfonamide], for which the IC50 fell in the range of 500 to 5000 nM. Turning to `CCCCc1cnc(S(C)(=O)=O)nc1-c1cc(C(C)C)c(=O)n(C)c1` [Example 513, 5-(5-butyl-2-methylsulfonylpyrimidin-4-yl)-1-methyl-3-propan-2-ylpyridin-2-one], the IC50 is under 500 nM. In the case of `Cn1cc(-c2nc(N3CCCS3(=O)=O)ncc2Oc2ccc(F)cc2F)c2ccccc2c1=O` [Example 171, 4-[5-(2,4-difluorophenoxy)-2-(1,1-dioxo-1,2-thiazolidin-2-yl)pyrimidin-4-yl]-2-methylisoquinolin-1-one], the IC50 was under 500 nM. Turning to `CCS(=O)(=O)Nc1ccc(Oc2ccc(F)cc2F)c(-c2cn(C)c(=O)c3c2CCC3)c1` [Example 507, N-[4-(2,4-difluorophenoxy)-3-(2-methyl-1-oxo-6,7-dihydro-5H-cyclopenta[c]pyridin-4-yl)phenyl]ethanesulfonamide], the IC50 was under 500 nM. The same measure, in the same setting: the result for `Cc1cc(-c2cc(S(C)(=O)=O)ccc2OCC2CC2)cn(Cc2ccccc2)c1=O` [Example 485, 1-benzyl-5-[2-(cyclopropylmethoxy)-5-methylsulfonylphenyl]-3-methylpyridin-2-one] reads 500 to 5000 nM; that for `CCS(=O)(=O)Nc1cc(-c2ccc(=O)n(C)c2)c(-c2ccccc2)s1` [Example 424, N-[4-(1-methyl-6-oxopyridin-3-yl)-5-phenylthiophen-2-yl]ethanesulfonamide], over 5000 nM.

The IC50 is the concentration needed to halve the response being measured. Higher therefore signals lower potency.

The values are drawn from US10023592B2, “Bromodomain inhibitors” (Celgene Quanticel Research, Inc., priority 2013, dated 2018).
